Experiment: Physicochemical properties of the crystalline complex

Structure (SMILES): N#Cc1ccc([C@@H]2O[C@H](CO)[C@@H](O)[C@H](O)[C@H]2O)cc1Cc1ccc(C2CC2)cc1.O=C(O)[C@@H]1CCCN1 [crystalline complex]
- tendency to absorb moisture: does not show a high tendency to absorb moisture
- physical and chemical stability (various environmental conditions and during production of a medicament): high physical and chemical stability
